Entries after “also recorded” stand apart in the source; their conditions may differ.
How the values were obtained:
[1] = tested on: tumor-infiltrated lymphocytes; assay: Flow cytometry immune profiling of tumor-infiltrating lymphocytes from ID8 tumors a week after the last treatment; format: in vivo, C57BL/6 mice; conditions: vs saline control
Description: Luciferase-expressing ID-8 ovarian cancer cells (3×10^6 cells) were injected into C57BL/6 female mice (30/group). Tumor initiation was confirmed 20 days later by IVIS imaging, and tumor-bearing animals were randomized into the treatment groups indicated in Table 2. Starting three weeks post tumor inoculation, AMD3100 (3 mg/kg) was injected IP every other day for three weeks alternating with αPD-1 or αPD-L1 (200 μg/mouse) by IP injection. 3 mg/kg AMD3100 is the murine equivalent of the approved human dose of 0.24 mg/kg based on allometric scaling.
Some animals from each treatment group were euthanized by i.p. administration of Ketamine (9 mg/ml in saline) and Xylazine (0.9 mg/ml in saline) a week after the last treatment for evaluation of tumor-infiltrating lymphocytes. Tumors were harvested and processed for immune profiling.
Flow cytometry: Tumors were mechanically disaggregated using razor blades, and cells were further separated by incubation at 37° C. for 2 hours in RPMI 1640 with collagenase type IV (2 mg/ml, Sigma), hyaluronidase (0.1 mg/ml, Sigma), and BSA (2 mg/ml, Sigma). Cell suspensions were passed through 100 μm filters to remove any remaining aggregates. Cells were washed with staining buffer (Biolegend) and stained with conjugated antibodies. All live cells were determined by the LIVE/DEAD® staining (ThermoFisher). Intracellular protein detection was realized by fixation/permeabilization reagents from BioLegend or eBioscience. Flow cytometry were performed using BD LSRFortessa X-20 (BD Biosciences) and data were analyzed by FlowJo V10.
Assessment of Results: Prism 6.0 software (GraphPad Software) was used for all statistical analyses. Statistical differences between three or more experimental groups were analyzed using Two-Way ANOVA, followed by Tukey's multiple comparison tests or Student T tests. Survival was analyzed with the Log-rank test.

ID8 tumor bearing mice = assay: Survival of ID8 tumor bearing mice (AMD3100/checkpoint inhibitor combination study); format: in vivo, C57BL/6 mice; conditions: vs saline treated control; AMD3100 3 mg/kg IP every other day for three weeks alternating with αPD-1 or αPD-L1 200 μg/mouse IP; Log-rank test
Description: Luciferase-expressing ID-8 ovarian cancer cells (3×10^6 cells) were injected into C57BL/6 female mice (30/group). […] Starting three weeks post tumor inoculation, AMD3100 (3 mg/kg) was injected IP every other day for three weeks alternating with αPD-1 or αPD-L1 (200 μg/mouse) by IP injection.
Tissue Culture: The ID8 ovarian cancer cells, a kind gift from Kathy Roby (University of Kansas Medical Center, Kansas City, Kans.), were transfected with luciferase lentiviral vector and a clone stably expressing luciferase was recovered, here named Luc-ID8. Cells were maintained at 37° C. in DMEM with 2 mmol/L L-glutamine, 10 units/ml penicillin, 10 μg/ml streptomycin, and 10% fetal bovine serum in a humidified atmosphere with 5% CO2. Cells were cultured until 80% confluent, then harvested with Trypsin EDTA (Mediatech) for animal injections.
Treatment Agents: AMD3100 was purchased from Abcam. 10 mg power was dissolved in 16.7 ml saline to achieve concentration of 0.6 mg/ml and 100 μl was injected for each treatment. Anti-mouse PD-1 and anti-mouse PD-L1 were purchased from Biocell. […]

[2] = tested on: intratumoral FoxP3+ regulatory T cells (Treg); conditions: literature statement; cited from earlier work
[3] = percentage of total CD8+ T cells in tumors

c1cc(CN2CCCNCCNCCCNCC2)ccc1CN1CCCNCCNCCCNCC1 [AMD3100, AMD3100 (plerixafor)]
proportions of CD40L+IL-2+ cells in CD4+FoxP3+CD25− population (helper-like T cells) ([1]; in tumors): significantly increased; also recorded: promoted replacement of Tregs by helper T cells | proportions of intratumor Tregs ([1]; percent of total CD4+ T cells in tumors): significantly reduced; also recorded: decreased | IFN-γ expression in intratumor CD8+ T cells [1, 3]: significantly increased; also recorded: enhanced | intratumor CD8+ memory T cells (CD27+CD44+ population in TILs) [1, 3]: significantly increased | survival time of ID8 tumor bearing mice (ID8 tumor bearing mice): significantly extended | levels of intratumoral FoxP3+ regulatory T cells (Treg) [2]: can be reduced

Reference: patent publication US20200093789A1, “Cancer Treatment with a CXCL12 Signaling Inhibitor and an Immune Checkpoint Inhibitor” (The General Hospital Corporation, priority 2017, published 2020)
